Laboratory results published in article PMC10657444, “Design and evaluation of tadpole-like conformational antimicrobial peptides” (Communications Biology, 2023).
In brackets after ≈: the same amount, converted by molar mass. Several values for one entry are separate records, joined by “and”; a condition that tells them apart may be missing. Equal values may be shown once. Read-outs that look alike come from different tables or passages of the source. Residues, ends and D or L forms follow the SMILES beside them.

Assays:
E. coli ATCC 25922 = type: cell-based, Escherichia coli
Excerpt: Bacteria were cultivated in Luria-Bertani (LB) broth.

MTT cytotoxicity assay = type: cell-based, human; conditions: human
HEK293T cells = test: MTT cytotoxicity assay; type: cell-based, human; conditions: for percent cell viability: HEK293T
MRSA USA 300 [1] = type: cell-based, Staphylococcus aureus
Experimental: (§1) The stability of peptides in different media was assessed using the MIC assay described above. Here, the stability of HT2 and RI-HT2 in serum, salt, and different pH were analyzed using methods previously described with some modifications. For serum stability, a solution of 10% or 20% fetal bovine serum (FBS) was made by diluting fetal bovine serum with phosphate buffer saline (PBS). HT2 and RI-HT2 were added for a final concentration of 160 µg/mL of peptide in the FBS solution, and incubation 2 h. Suspension containing no peptide was considered the negative control. The MIC of HT2 and RI-HT2 against MRSA USA 300 and K. pneumoniae ATCC 700603 were measured. For the acid stability assays, the peptides were incubated with different pH values of PBS (pH = 5.5 or 6.4) at 37 °C. These peptide mixtures were then serially diluted in a 96-well plate for the evaluation of antimicrobial activity against bacterial strains. Similarly, for salt stability, the peptides were assessed for their antimicrobial activity against MRSA USA 300 and K. pneumoniae ATCC 700603 in the presence of 150 mM NaCl.

[2] = tested on: K. pneumoniae ATCC 700603; type: cell-based, Klebsiella pneumoniae
Experimental: as §1

[3] = tested on: K. pneumoniae ATCC 700603; test: Membrane permeability, SYTOX Green; type: cell-based, Klebsiella pneumoniae
Experimental: Fluorescent probe SYTOX^TM Green (Invitrogen/ Life Technologies, S7020) was used to analyze the effect of HT2 and RI-HT2 on membrane permeability of MRSA USA 300 and K. pneumoniae ATCC 700603 as described elsewhere. SYTOX^TM Green is a DNA binding dye that is fluorescent when bound to nucleic acids and only enters cells with compromised plasma membranes. MRSA USA 300 and K. pneumoniae ATCC 700603 were cultured in LB broth to mid log phase at 37 °C and washed with PBS and resuspended (OD595 ≈ 0.1) in the same buffer. SYTOX^TM Green was added into the cell suspension with a final concentration of 5 μM and being kept in dark for 20 min. 98 µL pre-treated cell suspension was transferred into wells of 96-well glass black plates. Then, 2 µL of compound or DMSO were added to initiate the reaction. The final concentrations of HT2 and RI-HT2 were 1 ×, 2 ×, 4 × and 8 × MIC. Fluorescence strength was measured with excitation/emission wavelength of 485/528 nm every 5 min for 60 min.

MRSA USA 300 [4] = test: Transmission electron microscopy; type: cell-based, Staphylococcus aureus; conditions: 2 × MIC, 60 min
Experimental: The processing method of the samples for transmission electron microscopy (TEM) was the same as the treatment for SEM. The samples were then prefixed with 2.5% glutaraldehyde at 4°C overnight, post-fixed with osmium tetroxide for 70 min, and washed twice with PBS (pH 7.4). Subsequently, the samples were dehydrated for 10 min in a graded ethanol series (30, 50, 70, 90, and 100%) followed by 10 min in a mixture of absolute ethanol and acetone (1:1, v/v) and 10 min in absolute acetone. The specimens were transferred to a mixture of absolute acetone and epoxy resin (1:1, v/v) for 30 min and then to pure epoxy resin overnight at a constant temperature. Finally, the samples were sectioned using an ultramicrotome, stained with uranyl acetate and lead citrate, and then observed by TEM (Hitachi H-7650, Japan).

[5] = HEK293T cells, OD450, cytotoxicity (Fig 2a), replicates

Structure (SMILES): CC[C@H](C)[C@H](NC(=O)[C@H](CCCNC(=N)N)NC(=O)[C@H](CCCNC(=N)N)NC(=O)[C@H](CC(C)C)NC(=O)[C@H](Cc1ccccc1)NC(=O)[C@@H](N)CCCNC(=N)N)C(=O)N[C@@H](Cc1ccccc1)C(=O)N[C@@H](Cc1ccccc1)C(=O)N[C@@H](Cc1ccccc1)C(=O)N[C@@H](Cc1ccccc1)C(N)=O [HT2] (H-RFLRRIFFFF-NH2)
- MIC Gram- E. coli ATCC 25922 (E. coli ATCC 25922): 3.13 µM (≈ 4.53 µg/mL)
- IC50 at 72 h (MTT cytotoxicity assay): > 100 µM
- viability at 72 h, 0.39 µM (MTT cytotoxicity assay; HEK293T cells, HEK293T, 0.39 µM, read-out: OD450, cytotoxicity (Fig 2a), replicates): 96.7%
- viability at 72 h, 6.25 µM (MTT cytotoxicity assay; HEK293T cells, HEK293T, 6.25 µM, read-out: OD450, cytotoxicity (Fig 2a), replicates): 99.2%
- viability at 72 h, 12.5 µM (MTT cytotoxicity assay; HEK293T cells, HEK293T, 12.5 µM, read-out: OD450, cytotoxicity (Fig 2a), replicates): 92.8%
- viability at 72 h, 0.39 µM (MTT cytotoxicity assay; [5]): 100%
- viability at 72 h, 0.78 µM (MTT cytotoxicity assay; [5]): 94.2%
- viability at 72 h, 1.57 µM (MTT cytotoxicity assay; [5]): 93.1%
- viability at 72 h, 3.13 µM (MTT cytotoxicity assay; [5]): 95.4%
- viability at 72 h, 25 µM (MTT cytotoxicity assay; [5]): 93.2%
- viability at 72 h, 50 µM (MTT cytotoxicity assay; [5]): 98.4%
- viability at 72 h, 100 µM (MTT cytotoxicity assay; [5]): 94.3%
- toxicity / cytotoxicity against HEK293T cells (in words) (HEK293T cells): did not present
- percent cell viability (HEK293T cells; 6.25 µM): 93.7324 and 94.5028
- percent cell viability (HEK293T cells; 12.5 µM): 96.2979 and 92.259
- MIC against MRSA USA 300 (MRSA USA 300 [1]; USA 300): 3.13 µM (≈ 4.53 µg/mL)
- MIC against MRSA USA 300 (MRSA USA 300 [1]; USA 300, pH 5.5): 3.13 µM (≈ 4.53 µg/mL)
- MIC against MRSA USA 300 (MRSA USA 300 [1]; USA 300, pH 6.4): 3.13 µM (≈ 4.53 µg/mL)
- MIC against K. pneumoniae ATCC 700603 ([2]; 150 mM NaCl): 12.5 µM (≈ 18.1 µg/mL)
- MIC against K. pneumoniae ATCC 700603 ([2]; 10% FBS): 6.25 µM (≈ 9.05 µg/mL)
- MIC against K. pneumoniae ATCC 700603 ([2]; 20% FBS): 6.25 µM (≈ 9.05 µg/mL)
- MIC against K. pneumoniae ATCC 700603 ([2]; Normal medium): 6.25 µM (≈ 9.05 µg/mL)
- MIC against K. pneumoniae ATCC 700603 ([2]; pH 5.5): 12.5 µM (≈ 18.1 µg/mL)
- MIC against K. pneumoniae ATCC 700603 ([2]; pH 6.4): 6.25 µM (≈ 9.05 µg/mL)
- Fluorescence intensity ([3]; 2 × MIC, time 0 min): 501695 and 509033 and 502622
- Fluorescence intensity ([3]; 2 × MIC, time 5 min): 1090890 and 1043729 and 1064139
- Fluorescence intensity ([3]; 2 × MIC, time 10 min): 1729072 and 1765938 and 1671967
- Fluorescence intensity ([3]; 2 × MIC, time 15 min): 2450918 and 2522662 and 2381578
- Fluorescence intensity ([3]; 2 × MIC, time 20 min): 3050480 and 3158194 and 2985766
- Fluorescence intensity ([3]; 2 × MIC, time 25 min): 3669210 and 3714426 and 3535044
- Fluorescence intensity ([3]; 2 × MIC, time 30 min): 4083450 and 4189312 and 4054249
- Fluorescence intensity ([3]; 2 × MIC, time 35 min): 4565952 and 4682018 and 4543315
- Fluorescence intensity ([3]; 4 × MIC, time 0 min): 525974 and 544262 and 540364
- Fluorescence intensity ([3]; 4 × MIC, time 5 min): 1702985 and 1566300 and 1596913
- Fluorescence intensity ([3]; 4 × MIC, time 10 min): 2584709 and 2629728 and 2589896
- Fluorescence intensity ([3]; 4 × MIC, time 15 min): 4158305 and 4176033 and 4135763
- Fluorescence intensity ([3]; 4 × MIC, time 20 min): 5327990 and 5380046 and 5341458
- Fluorescence intensity ([3]; 4 × MIC, time 25 min): 6471332 and 6483549 and 6409400
- Fluorescence intensity ([3]; 4 × MIC, time 30 min): 7570513 and 7493394 and 7434627
- Fluorescence intensity ([3]; 4 × MIC, time 35 min): 8228675 and 8284610 and 8343092
- Fluorescence intensity ([3]; 8 × MIC, time 0 min): 870465 and 760375 and 885415
- Fluorescence intensity ([3]; 8 × MIC, time 5 min): 1479590 and 1252173 and 1198504
- Fluorescence intensity ([3]; 8 × MIC, time 10 min): 2304082 and 2051490 and 2261553
- Fluorescence intensity ([3]; 8 × MIC, time 15 min): 3691170 and 2983585 and 3730581
- Fluorescence intensity ([3]; 8 × MIC, time 20 min): 5088194 and 4586923 and 5243088
- Fluorescence intensity ([3]; 8 × MIC, time 25 min): 6892750 and 6059584 and 6984752
- Fluorescence intensity ([3]; 8 × MIC, time 30 min): 8250478 and 7253838 and 8382724
- Fluorescence intensity ([3]; 8 × MIC, time 35 min): 8870007 and 7712378 and 8970308
- Fluorescence intensity ([3]; 8 × MIC, time 40 min): 10334018
- Fluorescence intensity ([3]; MIC, time 0 min): 550162 and 549500 and 565924
- Fluorescence intensity ([3]; MIC, time 5 min): 788019 and 747687 and 700922
- Fluorescence intensity ([3]; MIC, time 10 min): 953632 and 962086 and 882779
- Fluorescence intensity ([3]; MIC, time 15 min): 1211256 and 1113347 and 1136029
- Fluorescence intensity ([3]; MIC, time 20 min): 1429978 and 1306982 and 1354221
- Fluorescence intensity ([3]; MIC, time 25 min): 1431312 and 1479927 and 1452172
- Fluorescence intensity ([3]; MIC, time 30 min): 1813062 and 1687978 and 1751083
- Fluorescence intensity ([3]; MIC, time 35 min): 1966664 and 1821317 and 1900107
- Fluorescence intensity ([3]; MIC, time 40 min): 2166119 and 2083647 and 2111537
- time to highest SYTOX Green fluorescence intensity ([3]; dose-dependent): ≤ 40 min
- membrane and intracellular structure by TEM (in words) (MRSA USA 300 [4]): cytoplasmic membranes became blurred and separated
